What was measured:
B16F10 melanomas = test: Flow cytometry of tumor-infiltrating immune cells, B16F10 melanomas treated with CARM1 inhibitor; assay type: in vivo, mouse
Description: FIG. 15A illustrates changes in tumor microenvironment induced by monotherapy or combination therapy with CARM1 inhibitor, showing treatment of mice with B16F10 melanomas with CARM1 inhibitor or vehicle control. Mice also received isotype control, CTLA-4 or PD-1 mAbs, as indicated (n=5 mice/group). Representative flow plots of CD8 T cells gated on live/singlets/CD45+/CD3+ cells from indicated groups are shown on left. Quantification of CD8 T cells is shown as percentage of CD3+ T cells (middle) or number per gram of tumor (right) for the indicated treatment groups.
FIG. 15B illustrates changes in tumor microenvironment induced by monotherapy or combination therapy with CARM1 inhibitor, showing number of intra-tumoral granzyme B+CD8+ T cells per gram of tumor for the indicated treatment groups (n=5 mice/group). Representative flow plots are shown on left.
FIG. 15C illustrates changes in tumor microenvironment induced by monotherapy or combination therapy with CARM1 inhibitor, showing number of intra-tumoral IL2+CD8+ T cells per gram of tumor for the indicated treatment groups (n=5 mice/group).
FIG. 15D illustrates changes in tumor microenvironment induced by monotherapy or combination therapy with CARM1 inhibitor, showing number of intra-tumoral IFNγ+CD8+ T cells per gram of tumor for the indicated treatment groups (n=5 mice/group). Representative flow plots are shown on left.
FIG. 15E illustrates changes in tumor microenvironment induced by monotherapy or combination therapy with CARM1 inhibitor, showing number of intra-tumoral perforin+CD8+ T cells per gram of tumor for the indicated treatment groups (n=5 mice/group).
FIG. 15F illustrates changes in tumor microenvironment induced by monotherapy or combination therapy with CARM1 inhibitor, showing analysis of intra-tumoral PD1+CD8+ T cells (quantified as percentage of CD8+ T cells) for the indicated treatment groups (n=5 mice/group). Representative flow plots (left) and quantification of PD-1 expression as percentage of CD8 T cells (middle) or MFI (right) are shown.
FIG. 16A illustrates changes in tumor microenvironment induced by monotherapy or combination therapy with CARM1 inhibitor, showing treatment of mice with B16F10 melanomas with CARM1 inhibitor or vehicle control. Mice also received isotype control, CTLA-4 or PD-1 mAbs, as indicated (n=5 mice/group). Quantification of CD4+ T cells (number per gram of tumor) for the indicated treatment groups.
FIG. 16B illustrates changes in tumor microenvironment induced by monotherapy or combination therapy with CARM1 inhibitor, showing quantification of IFNγ+ cells (as percentage of CD4+ T cells) for the indicated treatment groups.
FIG. 16C illustrates changes in tumor microenvironment induced by monotherapy or combination therapy with CARM1 inhibitor, showing quantification of FoxP3+ Treg cells (as percentage of CD4+ T cells) for the indicated treatment groups.
FIG. 16D illustrates changes in tumor microenvironment induced by monotherapy or combination therapy with CARM1 inhibitor, showing quantification of the CD8/FoxP3 Treg ratio for the indicated treatment groups.
FIG. 16E illustrates changes in tumor microenvironment induced by monotherapy or combination therapy with CARM1 inhibitor, showing number of intra-tumoral NK cells (left), dendritic cells (live, singlet, CD45+CD3−F4/80-CD11c+ MHCII^hi) (middle) and macrophages (live, singlet, CD45+CD3−F4/80+) (right) calculated per gram of tumor.
Inhibitor treatment was performed for 14 days because limited quantities of the compound were available.
Tumors were excised on day 18 following tumor cell inoculation and cut into small pieces using sterile scalpels in serum-free RPMI 1640 media (ThermoFisher #11875093). […]

B16F10 tumor cells = test: dsDNA damage, γH2AX immunofluorescence; assay type: cell-based, murine; details: B16F10 melanoma cells
Experimental: Representative immunofluorescence images (left) of γH2AX antibody labeling (purple); nuclei labeled with DAPI. Quantification of number of γH2AX foci/nucleus (right). Data are shown as mean±SEM, ***p<0.001, by unpaired two-sided Mann-Whitney test. Scale bar—[…].
Cells were grown on glass coverslips, washed with PBS and fixed in 4% paraformaldehyde in PBS for 20 min at room temperature. Cells were permeabilized in 0.2% Triton X-100 for 15 min before blocking for 30 min with 10% serum-containing blocker (ThermoFisher). Coverslips were then incubated with primary antibody overnight […] in a humidified chamber, followed by incubation with a secondary antibody for 1 hour. Primary and secondary antibodies were diluted in blocking buffer, and […]. Coverslips were mounted using Prolong Gold Antifade Mounting Medium with DAPI (ThermoFisher). Imaging was performed using a Hamamatsu ORCA-Flash4.0 V3 Digital CMOS camera and Nikon Ti-E Motorized Microscope 2000U microscope with Plan Apo Lamda 60×/1.40 Oil Ph3 DM objectives. Images were captured with Nikon Elements Acquisition Software. All scoring was performed under blinded conditions. Three independent experiments with three biological replicates per group were performed.

[1] = system: malignant melanoma xenograft model; details: oral dosing; cited from earlier work
[2] = system: B16F10-OVA-ZsGreen tumor cells; test: T cell cytotoxicity assay, B16F10-OVA-ZsGreen tumor cells with OT-I CD8 T cells; assay type: cell-based, murine; details: pre-treatment 0.1 μM for 24 hours
Description: FIG. 3K illustrates that inactivation of Carm1 gene in tumor cells elicits tumor immunity, showing sensitization of tumor cells to T cells with a CARM1 inhibitor. […] Vehicle or inhibitor treated tumor cells were co-cultured with OT-I CD8 T cells at indicated E:T ratios (n=7-8 replicates/condition).
A Celigo image cytometer (Nexcelom) was used to study the killing of fluorescent tumor cells by CD8 T cells. Carm1-KO or control-KO B16-OVA-ZsGreen cells were washed with PBS, and 5,000 tumor cells were added per well in flat-bottom 96-well plates (8-10 replicates/group). OT-I CD8 T cells were added at different effector to target ratios. Following 24 or 48 hours of co-culture, the media was removed, and wells were washed with PBS to remove dead tumor cells and CD8 T cells. Live, adherent tumor cells were then counted using the Celigo image cytometer. As an alternative approach, apoptotic tumor cells were counted based on Caspase 3/7 activation. A Caspase-3/7 reagent (Essen Bioscience) was added directly to the culture media (0.5 μM final concentration) after 12, 24 or 48 hours of co-culture of tumor cells with T cells, and positive tumor cells were counted using the image cytometer.

[3] = all three CARM1 inhibitor treatment groups
[4] = combined with PD-1 or CTLA-4 mAbs

In the case of `CNC[C@@H](O)COc1ccc(Cl)c(-c2nc(-c3c(C)noc3C)c(C)c(N3CC4(CCN(C(=O)OC)CC4)C3)n2)c1` (stereo in doubt) [EZM2302], the “number of CD8 T cells (per gram of tumor) that expressed granzyme B, IL-2, IFNγ, and perforin” value (B16F10 melanomas; [3]) is reported as “striking increase”, the “tumor-infiltrating NK cells” value (B16F10 melanomas; [3]) is reported as “increased” and the macrophage numbers (B16F10 melanomas; any of the treatment groups) is reported as “no changes in macrophage numbers”. For the same compound, the “CD8 T cell infiltration” value (B16F10 melanomas; [4]) was “even higher”, the cDC1 cells (B16F10 melanomas; [4]) was “increased” and the “tumor-infiltrating NK cells” value (B16F10 melanomas; [4]) was “highest”. For the same compound, the “PD-1 expression by CD8 T cells” value (B16F10 melanomas; compared to vehicle control group) was “reduced”, the “CD8 T cell infiltration” value (B16F10 melanomas; monotherapy) was “substantially increased” and the “number of tumor-infiltrating CD4 T cells or FoxP3+ Tregs” value (B16F10 melanomas; mouse, in vivo) was “did not change”. The γH2AX foci (B16F10 tumor cells) was “induced γH2AX foci accumulation”, the anti-tumor activity [1] was “anti-tumor activity” and the “in vivo CARM1 inhibition” value [1] was “dose-dependent in vivo CARM1 inhibition”. The “sensitization of tumor cells to CD8 T cells” value [2] was “sensitized them to CD8 T cells”.
